Test [1] has as its system motilin induced contraction. Briefly: Rabbit tissue bath procedure: inhibition of motilin induced contraction of duodenum segments. On the set-up: species or system New Zealand White rabbit. To be noted: 3 nM porcine motilin induced contraction, read-out: Tissues IC50. The method, then:
Rabbit Tissue Bath Procedure
One New Zealand White rabbit (Covance) of either sex was euthanized with an IV injection of Sleepaway. The duodenum was quickly excised, the lumen rinsed with saline to clean, and the tissue placed in cold, aerated (95% O2–5% CO2) Tyrodes buffer (NaCl 136.9 mM, KCl 2.7 mM, CaCl2 1.8 mM, MgCl2 1.04 mM, NaH2PO4 0.42 mM, NaHCO3 11.9 mM, Glucose 5.55 mM, pH 7.4). The duodenum, being kept moist at all times, was cleaned of any excess mesenteric tissue, and then cut into 3 cm segments starting at the proximal end. Sixteen tissue segments were usually prepared from each duodenum. These segments were tied on both ends with 3-0 silk suture (Ethicon). One end of the tissue was attached to an S-hook on a custom made glass support rod (Crown Glass Co., Somerville) and the rod plus tissue were placed in a 15 ml isolated tissue bath (Radnoti). The other end of the glass rod was attached to a Grass Force Displacement Transducer FT03. The tissue was maintained in room temperature Tyrodes buffer pH 7.4 and continually gassed with 95% O2— 5% CO2. The tissues were adjusted to 1.0 g resting tension and maintained at that tension throughout the equilibration period. An Ml2 Tissue Bath Computer was used to record and analyze data.
The tissues were washed twice during a 30 minute equilibration period and readjusted to 1 g resting tension as necessary. After equilibration the tissues were challenged with 3 μM Carbachol (Carbamoylcholine Chloride-Sigma). After maximal contraction was attained, the tissues were washed 3 times with Tyrodes. The tissues were allowed a 20 minute resting/equilibration period, during which time they were washed once and readjusted to 1 g resting tension. The tissues were challenged a second time with 3 μM Carbachol, and this contraction was considered as maximal, or 100% contraction. The tissues were washed 3 times, equilibrated for 10 minutes, washed again and readjusted to 1 g resting tension. Vehicle or test compound in 30% DMSO-50 mM HEPES was added directly to the bath and the tissues were incubated for 20 minutes. Test compounds and vehicle were run in duplicate.
The percent inhibition by test compound of the motilin induced contraction was calculated by first determining the ratio of the vehicle contractions with Motilin compared to the Carbachol contractions. This Tissue Adjustment Factor (TAF) was used to determine the value for the potential uninhibited contraction with Motilin for each tissue. The percent inhibition was then determined by dividing the actual Motilin contraction in treated tissues by the potential uninhibited contraction and subtracting this number from 1. IC50 values were determined by graphing results with Kaleidograph graphing program.

Test [2] has as its target T1, Motilin Receptor (Oryctolagus cuniculus, UniProt G1T803).
T1 construct: The muscle tissue was homogenized in 10 volumes of 50 mM Tris-Cl; from tissue; host or cells: rabbit colon smooth muscle, crude membrane homogenate
Briefly: Motilin receptor binding, rabbit colon membranes, 125I porcine motilin. Further details: Rabbit Colon % Inh / inhibition / % Inh (Rabbit colon): dose or concentration left out as unconfirmed. To be noted: rabbit colon membranes; for inhibition: read-out: Rabbit Colon % Inh; for pIC50: read-out: Rabbit Colon IC50.

pIC50: −log10 of the molar value.

T1 sequence (G1T803 1-400): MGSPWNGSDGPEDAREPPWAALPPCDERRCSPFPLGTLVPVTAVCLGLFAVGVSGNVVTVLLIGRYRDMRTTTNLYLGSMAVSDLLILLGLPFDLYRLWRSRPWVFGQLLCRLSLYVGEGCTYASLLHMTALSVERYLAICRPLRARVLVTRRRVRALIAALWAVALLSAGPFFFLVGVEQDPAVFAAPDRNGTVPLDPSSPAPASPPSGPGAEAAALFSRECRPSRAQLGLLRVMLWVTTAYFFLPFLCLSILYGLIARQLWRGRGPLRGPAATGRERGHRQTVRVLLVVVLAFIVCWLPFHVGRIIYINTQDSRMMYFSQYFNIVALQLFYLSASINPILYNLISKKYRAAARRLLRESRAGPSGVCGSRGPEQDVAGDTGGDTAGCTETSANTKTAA

As to `O=C(CCCC(=O)N(Cc1ccc(F)cc1)c1cccc(OCCCN2CCCCC2)c1)N(CCc1ccccc1)Cc1ccccc1` [compound 188], the results for the pIC50 in test [1] and in test [2] were 7.04 and 6.61, respectively. In addition, the inhibition in test [2] is 100%.
As to `Cc1c(OCCN2CCCC2)cccc1N(CC1CCCC(N(Cc2ccccc2)C(=O)C(Cl)(Cl)Cl)C1)C(=O)c1ccc(F)cc1` (stereo not drawn) [compound 210], in test [1], the negative logarithm of the IC50 (pIC50) is 7.62. For the same molecule, in test [2], the inhibition was 90% and the pIC50 is 7.07.
The matching figures for `O=C(CCC(=O)N(Cc1cccc(F)c1)c1cccc(OCCN2CCOCC2)c1)N(CCc1ccccc1)Cc1ccccc1` [compound 164]: 7.32, 84% and 6.71.
In the same order, the values of `CCN(CC)CCOc1cccc(N(Cc2ccc(F)cc2)C(=O)CCCC(=O)N(CCc2ccccc2)Cc2ccccc2)c1` [compound 178] are 7.82, 100% and 7.15.
The matching figures for `O=C(CCCC(=O)N(Cc1cccc(F)c1)c1cccc(OCCN2CCOCC2)c1)N(CCc1ccccc1)Cc1ccccc1` [compound 169]: 6.62, 97% and 7.34.
Regarding `O=C(CCCC(=O)N(Cc1ccc(F)cc1)c1cccc(OCCN2CCOCC2)c1)N(CCc1ccccc1)Cc1cccc(Cl)c1` [compound 162], the pIC50 in test [1] is 7.68; in test [2], 6.75. Further, in test [2], the inhibition was determined as 85%.
For `Cc1c(OCCN2CCCC2)cccc1N(CC1CCCC(N(Cc2cccc(Cl)c2)C(=O)C(Cl)(Cl)Cl)C1)C(=O)c1ccc(F)cc1` (stereo not drawn) [compound 209], the negative-log IC50 (pIC50) in test [1] was 7.68. Moreover, in test [2], the inhibition came to 84% and the pIC50 was 7.23.
The matching figures for `O=C(CCCC(=O)N(Cc1ccc(F)cc1)c1cccc(OCCN2CCNCC2)c1)N(CCc1ccccc1)Cc1ccccc1` [compound 179]: 7.64, 85% and 6.62.
In the same order, the values of `O=C(CCCC(=O)N(Cc1ccc(F)cc1)c1cccc(OCCN2CCCC2)c1)N(CCc1ccccc1)Cc1cccc([N+](=O)[O-])c1` [compound 197] are 8.12, 85% and 8.05.
The matching figures for `O=C(CCCC(=O)N(Cc1ccc(Cl)cc1)c1cccc(OCCN2CCOCC2)c1)N(CCc1ccccc1)Cc1ccccc1` [compound 173]: 6.55, 84% and 6.54.
On to `CC(C)(C)C(=O)N(Cc1cccc(Cl)c1)C1CCCC(CN(C(=O)c2ccc(F)cc2)c2cccc(OCCN3CCOCC3)c2)C1` (stereo not drawn) [compound 105], for which the negative-log IC50 (pIC50) in test [1] was 7.52; in test [2], 6.41. In addition, in test [2], the inhibition was 80%.
In the same order, the values of `O=C(CCCC(=O)N(Cc1ccc(F)cc1)c1cccc(OCCN2CCCC2)c1)N(CCc1ccc(Cl)cc1)Cc1cccc(Cl)c1` [compound 202] are 6.64, 6.48 and 100%.
The matching figures for `O=C(CCC(=O)N(Cc1ccc(F)cc1)c1cccc(OCCN2CCOCC2)c1)N(CCc1ccccc1)Cc1cccc(Cl)c1` [compound 163]: 7.72, 6.76 and 85%.
In the same order, the values of `COc1ccc(CN(C(=O)CCCC(=O)N(CCc2ccccc2)Cc2ccccc2)c2cccc(OCCN3CCOCC3)c2)cc1` [compound 171] are 6.64, 6.34 and 63%.
As to `CC(C)(C)C(=O)N(Cc1ccccc1)[C@@H]1CCC[C@H](CN(C(=O)c2ccc(F)cc2)c2cccc(OCCN3CCCC3)c2)C1` [compound 214], the negative-log IC50 (pIC50) in test [1] is 7.62.
For the molecule `O=C(CCCC(=O)N(Cc1ccc(F)cc1)c1cccc(OCCN2CCCC2)c1)N(CCc1ccccc1)Cc1ccccc1` [compound 180], the pIC50 in test [1] was 7.96; in test [2] it was 7.85. In test [2], the inhibition worked out at 99%.
In the same order, the values of `O=C(c1ccc(F)cc1)N(CC1CCCC(N(Cc2ccccc2)C(=O)C(Cl)(Cl)Cl)C1)c1cccc(OCCN2CCCC2)c1` (stereo not drawn) [compound 213] are 7.57, 7.24 and 84%.
The matching figures for `O=C(CCCC(=O)N1CCc2ccccc2C1c1ccccc1)N(Cc1ccc(F)cc1)c1cccc(OCCN2CCOCC2)c1` (stereo not drawn) [compound 153]: 7.52, 7.09 and 89%.
The matching figures for `O=C(Nc1ccccc1)N(CC1CCCC(N(Cc2cccc([N+](=O)[O-])c2)C(=O)C(Cl)(Cl)Cl)C1)c1cccc(OCCN2CCOCC2)c1` (stereo not drawn) [compound 65]: 7.57, 7.46 and 80%.
Turning to `O=C(CCCN(C(=O)Nc1ccccc1)c1cccc(OCCN2CCOCC2)c1)N(Cc1ccccc1)Cc1ccccc1` [compound 23], the “Rabbit Colon % Inh” value in test [2] was determined as 48%.
On to `O=C(Nc1ccccc1)NC1CCCC(CN(C(=O)Nc2ccccc2)c2cccc(OCCN3CCOCC3)c2)C1` (stereo not drawn) [compound 69], for which, in test [2], the “Rabbit Colon % Inh” value came to 0%.
For the molecule `Cc1ccc(C(=O)N(CCCC(=O)N(C)Cc2ccccc2)c2cccc(OCCN3CCOCC3)c2)cc1` [compound 17], the “Rabbit Colon % Inh” value in test [2] came to 12%.
As for `CCN(Cc1ccc(C)cc1)C(=O)CCCN(C(=O)c1ccc(F)cc1)c1cccc(OCCN2CCOCC2)c1` [compound 33], the “Rabbit Colon % Inh” value in test [2] is on record as 16%.
On the same count and under the same terms, the result for `CC(=O)Oc1ccc2c(c1)C(=O)N(C1CCCC(CN(C(=O)c3ccc(F)cc3)c3cccc(OCCN4CCOCC4)c3)C1)C2=O` (stereo not drawn) [compound 260] reads 30%.
Same read-out and setting: to `O=C(CCC(=O)N(Cc1ccc(Cl)cc1)c1cccc(OCCN2CCOCC2)c1)N(CCc1ccccc1)Cc1ccccc1` [compound 168] belongs 36%; to `O=C(C1CC=CCC1C(=O)N(Cc1ccc(F)cc1)c1cccc(OCCN2CCOCC2)c1)N(CCc1ccccc1)Cc1ccccc1` (stereo not drawn) [compound 155], 34%.
For `O=C(CCCC(=O)N(Cc1ccc(F)cc1)c1cccc(OCCN2CCCC2)c1)N(CCc1ccccc1)Cc1cc(Cl)cc(Cl)c1` [compound 199], in test [2], the inhibition came out at 91% and the pIC50 is 7.00.
In the same order, the values of `CC(CC(=O)N(CCc1ccccc1)Cc1ccccc1)CC(=O)N(Cc1ccc(F)cc1)c1cccc(OCCN2CCOCC2)c1` (stereo not drawn) [compound 189] are 70% and 6.52.
Consider `CC(C)(C)C(=O)N(Cc1cccc(Cl)c1)C1CCCC(CN(C(=O)Nc2ccccc2)c2cccc(OCCN3CCOCC3)c2)C1` (stereo not drawn) [compound 52], for which, in test [2], the “Rabbit Colon % Inh” value is given as 45%.
The same measure, in the same setting: to `O=C(CCCCN(C(=O)Nc1ccccc1)c1cccc(OCCN2CCOCC2)c1)N(CCc1ccccc1)Cc1ccccc1` [compound 5] belongs 40%; to `O=C(Nc1ccccc1)N(CC1CCCC(N(Cc2ccccc2)C(=O)c2ccc(-c3ccccc3)cc2)C1)c1cccc(OCCN2CCOCC2)c1` (stereo not drawn) [compound 83], 3%.
As to `O=C(NC1CCCC(CN(C(=O)Nc2ccccc2)c2cccc(OCCN3CCOCC3)c2)C1)c1ccco1` (stereo not drawn) [compound 70], the “Rabbit Colon % Inh” value in test [2] was found to be 0%.
`O=C(CCCC(=O)N(Cc1ccc(F)cc1)c1cccc(OCCN2CCCC2)c1)N(CCN1CCCC1)Cc1cccc(Cl)c1` [compound 203]: in test [2], the inhibition was found to be 98% and the pIC50 is 6.62.

For orientation: pIC50 means −log10 of the IC50, conventionally taken in molar units.

The record behind these values is patent US7112586B2, “Substituted diamine derivatives useful as motilin antagonists” (Ortho-McNeil Pharmaceutical, Inc., priority 2000, dated 2006).
